We go through 18 compounds from ChEMBL document CHEMBL4417624, “Small molecule c-myc inhibitors” (2016).

The structures appear in SMILES notation. Active and inactive are the calls of the source. No cut-off for these calls is given here.

In general, inhibition refers to the drop in the measured response relative to a control, in per cent.

Data set [1] concerns the target Myc proto-oncogene protein (Homo sapiens) (UniProt P01106). The data set can be described thus: Inhibition of human ATG-Myc expressed in chicken embryo fibroblasts assessed as reduction in Myc-induced oncogenic transformation by measuring efficiency of oncogenic transformation at 10 uM.
Data set [2] concerns the target T1, c-Myc/Max (Homo sapiens) (UniProt P01106+P61244). The data set can be described thus: Inhibition of dimerization of human MYC bHLH-LZ domain/MAX bHLH-LZ domain expressed in Escherichia coli in presence of Alexa Fluor 594-tagged E-box duplex DNA by fluorescence polarization assay.
For data set [3], the target named is Myc proto-oncogene protein (Homo sapiens) (UniProt P01106). The data set is described as follows: Inhibition of human ATG-Myc expressed in chicken embryo fibroblasts assessed as reduction in Myc-induced oncogenic transformation by measuring efficiency of oncogenic transformation.
Data set [4] concerns Cotesia glomerata. The data set is described as follows: Antiproliferative activity against v-myc-transformed primary QEF/MC29 cells assessed as inhibition of cell proliferation at 50 uM incubated for 3 days by Cell-titer 96 Non-radioactive cell proliferation assay. It is filed as functional.
The subject of data set [5] is Mus musculus. The data set can be described thus: Inhibition of Myc in nude mouse xenografted with human MDA-MB-231 cells assessed as increase in NDRG1 expression at 10 mg/kg, ip dosed daily for 31 days by Western blot analysis. It is filed as functional, organism-based. (In general: A xenograft is tissue or cells of one species grown in another, often human tumour cells in immunodeficient mice.)

Data set [6] has as its system MOLT-4. The data set is described as follows: Antiproliferative activity against human MOLT4 cells assessed as inhibition of cell proliferation at 25 uM incubated for 3 days by Cell-titer 96 Non-radioactive cell proliferation assay. The format is functional, cell-based.
In data set [7] the test system is Ramos. The data set can be described thus: Antiproliferative activity against human Ramos cells assessed as inhibition of cell proliferation at 2.5 to 10 uM incubated for 72 hrs by resazurin dye based assay. The format is functional. (The colour change of resazurin is a common sign of viable cells or microbes.)
Data set [8] relates to K562. The data set is described as follows: Antiproliferative activity against human K562 cells assessed as inhibition of cell proliferation at 25 uM incubated for 3 days by Cell-titer 96 Non-radioactive cell proliferation assay. It is filed as functional, cell-based.
Data set [9] has as its system SUM-159-PT. The data set is described as follows: Antiproliferative activity against human SUM159PT cells assessed as inhibition of cell proliferation at 10 to 40 uM incubated for 3 days by Cell-titer 96 Non-radioactive cell proliferation assay. The format is functional, cell-based.
For data set [10], the target named is Myc proto-oncogene protein (Homo sapiens) (UniProt P01106). Conditions: MDA-MB-231, 20 uM.
Description: Inhibition of Myc in human MDA-MB-231 cells assessed as increase in NDRG1 expression at 20 uM incubated for 24 hrs by Western blot analysis
Data set [11] has as its system Mus musculus. The data set is described as follows: Inhibition of Myc in nude mouse xenografted with human MDA-MB-231 cells assessed as increase in NDRG1 expression at 10 mg/kg, ip dosed daily for 31 days by immunofluorescent staining. It is filed as functional, organism-based.
Data set [12] can be described thus: Acute toxicity in rat at 10 mg/kg. It is filed as organism-based. The settings on record: in vivo.
Data set [13] in a line: Toxicity in nude mouse xenografted with human MDA-MB-231 cells assessed as effect on body weight at 10 mg/kg, ip dosed daily for 31 days. It is filed as organism-based. The settings on record: in vivo, 744 h.
For data set [14], the system named is SW480. The data set is described as follows: Antiproliferative activity against human SW480 cells assessed as inhibition of cell proliferation at 50 uM incubated for 3 days by Cell-titer 96 Non-radioactive cell proliferation assay. The format is functional, cell-based.
Data set [15] concerns MDA-MB-231. The data set can be described thus: Antitumor activity against human MDA-MB-231 cells xenografted in nude mouse assessed as reduction tumor weight at 10 mg/kg, ip dosed daily for 31 days. It is filed as functional, organism-based.
For data set [16], the species on record is Homo sapiens. The data set is described as follows: Antiproliferative activity against human Akata cells assessed as inhibition of cell proliferation at 2.5 to 10 uM incubated for 72 hrs by resazurin dye based assay. It is filed as functional.
The subject of data set [17] is Rous sarcoma virus. The data set is described as follows: Inhibition of Rous sarcoma virus v-SRC expressed in chicken embryo fibroblasts assessed as reduction in Myc-induced oncogenic transformation by measuring efficiency of oncogenic transformation up to 20 uM.
Data set [18] deals with HL-60. The data set is described as follows: Antiproliferative activity against human HL60 cells assessed as inhibition of cell proliferation at 25 uM incubated for 3 days by Cell-titer 96 Non-radioactive cell proliferation assay. It is filed as functional, cell-based.
The subject of data set [19] is NCI-H460. The data set can be described thus: Antiproliferative activity against human NCI-H460 cells assessed as inhibition of cell proliferation at 10 to 40 uM incubated for 3 days by Cell-titer 96 Non-radioactive cell proliferation assay. The format is functional, cell-based.
Data set [20] is described as follows: Acute toxicity in mouse at 10 mg/kg. It is filed as organism-based. The settings on record: in vivo.
Data set [21] concerns MDA-MB-231. The data set is described as follows: Antiproliferative activity against human MDA-MB-231 cells assessed as inhibition of cell proliferation at 10 to 40 uM incubated for 3 days by Cell-titer 96 Non-radioactive cell proliferation assay. It is filed as functional, cell-based.
In data set [22] the test system is Avian sarcoma virus 17. The data set is described as follows: Inhibition of Avian sarcoma virus 17 v-Jun expressed in chicken embryo fibroblasts assessed as reduction in Myc-induced oncogenic transformation by measuring efficiency of oncogenic transformation up to 20 uM.
Data set [23] deals with Raji. The data set is described as follows: Antiproliferative activity against human Raji cells assessed as inhibition of cell proliferation at 2.5 to 10 uM incubated for 72 hrs by resazurin dye based assay. The format is functional.
For data set [24], the system named is MDA-MB-231. The data set is described as follows: Effect on Myc expression in human MDA-MB-231 cells at 20 uM incubated for 24 hrs by Western blot analysis. The format is functional, cell-based. On the technique in general: In western blotting, separated proteins are transferred to a membrane and probed.
Data set [25] deals with Cotesia glomerata. The data set is described as follows: Antiproliferative activity against methylcholanthrene-transformed primary quail embryo fibroblasts assessed as inhibition of cell proliferation at 50 uM incubated for 3 days by Cell-titer 96 Non-radioactive cell proliferation assay. The format is functional.
A short description of data set [26]: Antiproliferative activity against HSF assessed as inhibition of cell proliferation at 50 uM incubated for 3 days by Cell-titer 96 Non-radioactive cell proliferation assay. The settings on record: human, 72 h.
Data set [27] relates to MDA-MB-231. The data set is described as follows: Antitumor activity against human MDA-MB-231 cells xenografted in nude mouse assessed as reduction tumor volume at 10 mg/kg, ip dosed daily for 31 days. The format is functional, organism-based.
The species entered for data set [28] is Homo sapiens. The data set can be described thus: Inhibition of PI3K H1047R mutant (unknown origin) expressed in chicken embryo fibroblasts assessed as reduction in Myc-induced oncogenic transformation by measuring efficiency of oncogenic transformation up to 20 uM.
For data set [29], the target named is T1, c-Myc/Max (Homo sapiens). The data set can be described thus: Inhibition of MYC/MAX dimerization in human MDA-MB-231 cells assessed as reduction in Myc expression at 20 uM incubated for 24 hrs by Western blot analysis. It is filed as cell-based.
In data set [30] the target is T1, c-Myc/Max (Homo sapiens). The data set can be described thus: Inhibition of MYC/MAX dimerization in human MDA-MB-231 cells assessed as increase in NDRG1 expression at 20 uM incubated for 24 hrs by Western blot analysis. It is filed as cell-based.

Chain of Myc proto-oncogene protein (Homo sapiens) (P01106 whole entry, the tested form may be a part): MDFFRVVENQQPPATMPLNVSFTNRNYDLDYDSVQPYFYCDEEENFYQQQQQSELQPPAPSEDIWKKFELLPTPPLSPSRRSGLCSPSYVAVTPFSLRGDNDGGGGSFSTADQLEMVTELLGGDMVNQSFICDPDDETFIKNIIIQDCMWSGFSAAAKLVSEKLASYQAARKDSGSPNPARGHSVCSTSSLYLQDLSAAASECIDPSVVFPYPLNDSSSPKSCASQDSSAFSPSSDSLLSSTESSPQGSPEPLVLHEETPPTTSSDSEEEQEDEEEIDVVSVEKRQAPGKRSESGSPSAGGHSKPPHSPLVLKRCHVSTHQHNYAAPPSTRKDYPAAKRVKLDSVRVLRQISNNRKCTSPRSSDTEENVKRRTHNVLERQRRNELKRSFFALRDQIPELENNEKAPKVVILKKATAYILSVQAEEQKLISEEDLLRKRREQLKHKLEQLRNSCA

As for `NC(=O)c1ccc(-c2cc(-c3ccc(OC(F)(F)F)cc3)nc(-c3ccco3)c2)cc1`, the inhibition entry in data set [1] and in data set [2] was “Active” throughout.
For `NC(=O)c1ccc(-c2cc(-c3ccc(SC(F)(F)F)cc3)nc(-c3ccco3)c2)cc1`, the inhibition result in data set [1] and in [2] was “inactive” throughout.
Regarding `N#Cc1ccc(-c2cc(-c3ccc(C(N)=O)cc3)cc(-c3ccco3)n2)cc1`, the inhibition in data set [1] came out at 100%. In addition, the inhibition result in data set [2] and in data set [3] was “Active” throughout.
For `NC(=O)c1ccc(-c2cc(-c3ccc(Br)cc3)nc(-c3ccc([N+](=O)[O-])cc3)c2)cc1`, the inhibition entry in data set [1] and in [2] was “inactive” throughout.
As for `NC(=O)c1ccc(-c2cc(-c3ccc([N+](=O)[O-])cc3)nc(-c3ccco3)c2)cc1`, the result in data set [4], in data set [6], in data set [7], in data set [8], in [9] and in data set [15] was Active. For the same compound, the outcome in data set [16], in [18], in [19], in data set [21], in [23] and in [25] was Active. In data set [27], the result was Active. Further, the inhibition result in data set [5], in data set [10], in data set [11], in data set [22], in data set [2] and in [28] was “Active” throughout. Moreover, the Activity entry in data set [12], in data set [13], in data set [20] and in data set [26] was “Non-Toxic” in each case. Further, the result in data set [14] and in [24] was inactive. For the same compound, the inhibition is 100% in [1] and “Dose-dependent effect” in data set [3]. The inhibition result in [17] was “inactive”.
Consider `CN1CCN(c2ccc(-c3cc(-c4ccc(C(N)=O)cc4)cc(-c4ccc([N+](=O)[O-])cc4)n3)cc2)CC1`, for which the inhibition result in [2] is “inactive”. Also, in [3], the inhibition result was “Active”.
`NC(=O)c1ccc(-c2cc(-c3ccncc3)nc(-c3ccc([N+](=O)[O-])cc3)c2)cc1`: in [1], the inhibition turned out to be 100%. Moreover, the inhibition result in data set [2] was “Active”.
In the case of `NC(=O)c1ccc(-c2cc(-c3ccc([N+](=O)[O-])cc3)nc(-c3ccco3)c2)o1`, the inhibition result in data set [1] and in data set [2] was “Active” each time.
As to `NC(=O)c1ccc(-c2cc(-c3ccc([N+](=O)[O-])cc3)nc(-c3ccccc3Br)c2)cc1`, the inhibition entry in data set [1] and in data set [2] was “inactive” throughout.
For `NC(=O)c1ccc(-c2cc(-c3ccc([N+](=O)[O-])cc3)nc(-c3ccc(Br)cn3)c2)cc1`, the inhibition entry in data set [1] and in data set [2] was “inactive” throughout.
Regarding `NC(=O)c1ccc(-c2cc(-c3ccc(S(N)(=O)=O)cc3)nc(-c3ccco3)c2)cc1`, the inhibition entry in [2] was “Active”.
As for `NC(=O)c1ccc(-c2cc(-c3ccc(C(F)(F)F)cc3)nc(-c3ccco3)c2)cc1`, the inhibition result in [1] and in data set [2] was “Active” throughout.
With `NC(=O)c1ccc(-c2cc(-c3ccc([N+](=O)[O-])cc3)nc(-c3ccccn3)c2)cc1`, the inhibition result in data set [1] and in [2] was “inactive” throughout.
In the case of `CCc1ccc(/C=C2/SC(=S)NC2=O)cc1`, the inhibition entry in data set [29] and in [30] was “Active” throughout.
With `CS(=O)(=O)c1ccc(-c2cc(-c3ccc(C(N)=O)cc3)cc(-c3ccco3)n2)cc1`, the inhibition entry in data set [1] and in data set [2] was “inactive” each time.
In the case of `COC(=O)c1ccc(-c2cc(-c3ccc(C(N)=O)cc3)cc(-c3ccco3)n2)cc1`, the inhibition entry in [1] and in data set [2] was “inactive” each time.
`NC(=O)c1ccc(-c2cc(-c3ccc([N+](=O)[O-])cc3)nc(-c3cccc(Br)n3)c2)cc1`: the inhibition result in data set [1] and in data set [2] was “inactive” throughout.
As to `COC(=O)c1cccc(-c2cc(-c3ccc(C(N)=O)cc3)cc(-c3ccco3)n2)c1`, in [1], the inhibition worked out at 100%. Besides, the inhibition result in data set [2] and in [3] was “Active” throughout.
